Measurements taken from PMC6978316, “Development of chimeric peptides to facilitate the neutralisation of lipopolysaccharides during bactericidal targeting of multidrug-resistant Escherichia coli” (Communications Biology, 2020).
Like-named read-outs stand apart in the source and are kept apart here. Where a SMILES comes first, the peptide text is derived from it. Bridges are numbered along the chain shown (N, C = ends). Where no end group is shown, it is not given here.

Assays:
pepsin = assay type: in vitro ADME
trypsin = assay type: in vitro ADME
in vitro = details: mouse, serum, peptide remaining in serum, Mean, mice serum, 37 °C, RP-HPLC, mean of n = 3 (source data Fig. 2f)
Method: The thermal, pH and enzyme stability of A6 and G6 were evaluated against MDR E. coli CVCC195 using a previous method with minor revisions. The N6, A6, and G6 solutions were treated at different temperatures (20–100 °C) for 1 h, dissolved and incubated at different pH values (2–10) for 3 h, or incubated with trypsin or pepsin for 4 h. The inhibition zone diameters were measured after incubation at 37 °C for 18–24 h. The peptides were dissolved in H2O or mice serum at 37 °C to detect their serum stability and samples were removed at different time points to determine their residual activity by the inhibition zone or reverse-phase high-performance liquid chromatography (RP-HPLC) methods[62],[63].

[1] = Biodistribution of FITC-labeled peptides (in vivo fluorescence imaging); details: nude mice, FITC-labeled peptide 5 mg per kg intraperitoneally
Method: The nude mice were intraperitoneally injected with 5 mg per kg FITC-labeled A6, G6, and N6, respectively. Free FITC was used as a negative control.

tested bacterial strains = assay: MIC, range over all tested strains (peer review file); assay type: cell-based; details: manuscript lines quoted in the peer review file
Method: The MIC values of A6, G6, the parental peptides (N6 and LBP14), LBPN6, scramble controls (N6CK, A6CK, and G6CK), and PMB were determined by the microtiter broth dilution method. The tested strains included Gram-negative bacteria, Gram-positive bacteria, and fungi and were cultured to the logarithmic growth phase, diluted to 10^5 CFU per ml, and added into 96-well plates (90 μl per well). Peptides or antibiotic were diluted with PBS by 2-fold dilution and were added to each well (10 μl per well). Polymyxin B (PMB) and PBS were used as the positive and negative control, respectively. […] All experiments were repeated three times.

E. coli LPS = assay: BODIPY-TR-cadaverine (BC) displacement assay; assay type: binding, Escherichia coli; design: BC displacement from LPS, Mean: unit not given here; details: for BC displacement from LPS, Mean: mean of n = 3
Method: The affinity of SCPs (A6, G6, and N6) to E. coli LPS was detected by the fluorescent BC probe. The binding of fluorescent probe with LPS can cause fluorescence quenching. When peptides bind to LPS, BC probe can be replaced, which can result in an increase in fluorescence. Equal volumes of LPS (40 μg per ml) and BC probe (10 μM) in 50 mM Tris buffer (pH 7.4) were mixed and added into a black 96-well microtiter plate (180 μl mixture per well), followed by the addition of different concentrations of A6, G6, or N6 (20 μl per well). Ampicillin and PMB were used as the negative and positive control, respectively. Changes in fluorescence were measured by a fluorescence spectrophotometry at room temperature (excitation: 580 nm, emission: 620 nm) and the BC displacement rate was calculated.

E. coli CVCC195 = assay type: cell-based, Escherichia coli; details: for Fold change in MIC: E. coli CVCC195
Method: Bacterial resistance against the peptides was assessed via the MIC assays. […] After 16–18 h of incubation at 37 °C, cells from the second highest concentration showing visible growth were used to inoculate the subsequent cultures. The MIC values for drug passage cultures were obtained as described above. This process was repeated for 30 d.

CC(C)[C@@H]1NC(=O)CNC(=O)[C@H](CC(N)=O)NC(=O)[C@H](CCCNC(=N)N)NC(=O)[C@H](Cc2ccc(O)cc2)NC(=O)[C@H](C(C)C)NC(=O)[C@@H](NC(=O)[C@@H](NC(=O)[C@H](CC(N)=O)NC(=O)[C@H](Cc2c[nH]c3ccccc23)NC(=O)[C@H](C)NC(=O)[C@H](Cc2ccccc2)NC(=O)CN)C(C)C)CSSC[C@@H](C(=O)N[C@@H](Cc2cnc[nH]2)C(=O)N[C@@H](CCCNC(=N)N)C(=O)N[C@@H](CCCNC(=N)N)C(=O)N[C@@H](C)C(=O)N[C@@H](CC(N)=O)C(=O)O)NC(=O)[C@H](C(C)C)NC(=O)[C@H](CCCNC(=N)N)NC1=O [N6] (H-GFAWNVCVYRNGVRVCHRRAN-OH; disulfide 7-16)
antibacterial activity after pepsin (inhibition zone diameter), Mean (pepsin): 1.866
antibacterial activity without enzyme (inhibition zone diameter), Mean (pepsin): 2.004
antibacterial activity after trypsin (inhibition zone diameter), Mean (trypsin): 0
remaining at 1 h (in vitro; 1 h): 93%
remaining at 2 h (in vitro; 2 h): 87.5%
remaining at 4 h (in vitro; 4 h): 77.3%
time after injection at which the fluorescence disappeared / peptide was excreted [1]: 72 h

RVQGRWKVRASFFKEAAAKEAAAKVCVYRGFAWNCHRRANNGVRV (disulfide 26-35) [A6CK]
MICs against the tested bacterial strains (range) (tested bacterial strains): hardly any activity

CC(C)[C@H](N)C(=O)N[C@H]1CSSC[C@@H](C(=O)N[C@@H](Cc2c[nH]cn2)C(=O)N[C@@H](CCCNC(=N)N)C(=O)N[C@@H](CCCNC(=N)N)C(=O)N[C@@H](C)C(=O)N[C@@H](CC(N)=O)C(=O)N[C@@H](CC(N)=O)C(=O)NCC(=O)N[C@H](C(=O)N[C@@H](CCCNC(=N)N)C(=O)N[C@H](C(=O)O)C(C)C)C(C)C)NC(=O)[C@H](CC(N)=O)NC(=O)[C@H](Cc2c[nH]c3ccccc23)NC(=O)[C@H](C)NC(=O)[C@H](Cc2ccccc2)NC(=O)CNC(=O)[C@H](CCCNC(=N)N)NC(=O)[C@H](Cc2ccc(O)cc2)NC(=O)[C@H](C(C)C)NC1=O [N6CK] (H-VCVYRGFAWNCHRRANNGVRV-OH; disulfide 2-11; N-terminus and C-terminus assumed)
MICs against the tested bacterial strains (range) (tested bacterial strains): hardly any activity

CC1(C)S[C@@H]2[C@H](NC(=O)[C@H](N)c3ccccc3)C(=O)N2[C@H]1C(=O)O [AMP, Ampicillin]
BC displacement from LPS, Mean (E. coli LPS; 0.05 μM, LPS 40 μg per ml + BC 10 μM, 50 mM Tris pH 7.4, ex 580/em 620 nm): -0.1364
BC displacement from LPS, Mean (E. coli LPS; 0.1 μM): -0.2089
BC displacement from LPS, Mean (E. coli LPS; 0.5 μM): -1.734
BC displacement from LPS, Mean (E. coli LPS; 1 μM): -1.14
BC displacement from LPS, Mean (E. coli LPS; 5 μM): -3.263
BC displacement from LPS, Mean (E. coli LPS; 10 μM): -3.845
BC displacement from LPS, Mean (E. coli LPS; 50 μM): -4.033
BC displacement ratio (E. coli LPS; 100 μM): did not displace BC probe
BC displacement from LPS, Mean (E. coli LPS; 100 μM): -4.227

CNC(C)C1CCC(N)C(OC2C(N)CC(N)C(OC3OCC(C)(O)C(NC)C3O)C2O)O1 (centres unmarked) [Gentamicin, gentamicin]
Fold change in MIC (E. coli CVCC195; Day 1 of serial passage): 1 fold
Fold change in MIC (E. coli CVCC195; Day 2 of serial passage): 2 fold
Fold change in MIC (E. coli CVCC195; Day 3 of serial passage): 2 fold
Fold change in MIC (E. coli CVCC195; Day 4 of serial passage): 1 fold
Fold change in MIC (E. coli CVCC195; Day 5 of serial passage): 2 fold
Fold change in MIC (E. coli CVCC195; Day 6 of serial passage): 2 fold
Fold change in MIC (E. coli CVCC195; Day 7 of serial passage): 4 fold
Fold change in MIC (E. coli CVCC195; Day 8 of serial passage): 4 fold
Fold change in MIC (E. coli CVCC195; Day 9 of serial passage): 4 fold
Fold change in MIC (E. coli CVCC195; Day 10 of serial passage): 8 fold
Fold change in MIC (E. coli CVCC195; Day 11 of serial passage): 8 fold
Fold change in MIC (E. coli CVCC195; Day 12 of serial passage): 8 fold
Fold change in MIC (E. coli CVCC195; Day 13 of serial passage): 8 fold
Fold change in MIC (E. coli CVCC195; Day 14 of serial passage): 16 fold
Fold change in MIC (E. coli CVCC195; Day 15 of serial passage): 16 fold
Fold change in MIC (E. coli CVCC195; Day 16 of serial passage): 16 fold
Fold change in MIC (E. coli CVCC195; Day 17 of serial passage): 16 fold
Fold change in MIC (E. coli CVCC195; Day 18 of serial passage): 16 fold
Fold change in MIC (E. coli CVCC195; Day 19 of serial passage): 16 fold
Fold change in MIC (E. coli CVCC195; Day 20 of serial passage): 16 fold
Fold change in MIC (E. coli CVCC195; Day 21 of serial passage): 16 fold
Fold change in MIC (E. coli CVCC195; Day 22 of serial passage): 16 fold
Fold change in MIC (E. coli CVCC195; Day 23 of serial passage): 16 fold
Fold change in MIC (E. coli CVCC195; Day 24 of serial passage): 16 fold
Fold change in MIC (E. coli CVCC195; Day 25 of serial passage): 16 fold
Fold change in MIC (E. coli CVCC195; Day 26 of serial passage): 16 fold
Fold change in MIC (E. coli CVCC195; Day 27 of serial passage): 16 fold
Fold change in MIC (E. coli CVCC195; Day 28 of serial passage): 16 fold
Fold change in MIC (E. coli CVCC195; Day 29 of serial passage): 16 fold
Fold change in MIC (E. coli CVCC195; Day 30 of serial passage): 16 fold
MIC elevation (E. coli CVCC195; at 7 d of serial passage): 3 fold
MIC elevation (E. coli CVCC195; at 15 d of serial passage): 15 fold
